Source: patent publication US11186576B2, “Pyrazolo[1,5-A][1,3,5]triazine and pyrazolo[1,5-A]pyrimidine derivatives as CDK inhibitors” (Aurigene Discovery Technologies Limited, priority 2015, dated 2021)
Read-outs that look alike come from different tables or passages of the source.

Tests used:
[1] = biological target: CDK7/CycH/MNAT1 (Homo sapiens (Human), UniProt P50613); assay: Biochemical assay for CDK7 (TR-FRET kinase assay); settings: for inhibition at 10 µM: read-out: % inhibition @ 10 μM
Sequence of CDK7/CycH/MNAT1 (P50613 whole entry): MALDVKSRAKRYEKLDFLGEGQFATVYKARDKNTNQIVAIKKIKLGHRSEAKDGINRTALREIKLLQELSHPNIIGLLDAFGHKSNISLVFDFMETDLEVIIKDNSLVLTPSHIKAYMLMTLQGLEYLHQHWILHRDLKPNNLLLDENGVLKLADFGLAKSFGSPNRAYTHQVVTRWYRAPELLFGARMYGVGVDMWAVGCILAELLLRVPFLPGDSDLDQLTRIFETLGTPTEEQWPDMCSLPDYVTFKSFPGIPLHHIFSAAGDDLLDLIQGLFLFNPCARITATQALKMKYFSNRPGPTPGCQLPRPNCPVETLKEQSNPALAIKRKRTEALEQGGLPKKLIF
Sequence of CDK7/CycH/MNAT1 (P51946 whole entry partner): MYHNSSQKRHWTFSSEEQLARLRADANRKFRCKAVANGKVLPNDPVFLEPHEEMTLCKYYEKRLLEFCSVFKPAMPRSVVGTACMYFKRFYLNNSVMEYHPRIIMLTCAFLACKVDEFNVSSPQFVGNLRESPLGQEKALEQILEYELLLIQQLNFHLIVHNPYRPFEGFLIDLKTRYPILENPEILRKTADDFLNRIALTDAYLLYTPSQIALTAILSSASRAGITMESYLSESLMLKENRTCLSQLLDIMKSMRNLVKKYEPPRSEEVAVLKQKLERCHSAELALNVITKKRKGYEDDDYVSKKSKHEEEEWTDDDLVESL
Sequence of CDK7/CycH/MNAT1 (P51948 whole entry partner): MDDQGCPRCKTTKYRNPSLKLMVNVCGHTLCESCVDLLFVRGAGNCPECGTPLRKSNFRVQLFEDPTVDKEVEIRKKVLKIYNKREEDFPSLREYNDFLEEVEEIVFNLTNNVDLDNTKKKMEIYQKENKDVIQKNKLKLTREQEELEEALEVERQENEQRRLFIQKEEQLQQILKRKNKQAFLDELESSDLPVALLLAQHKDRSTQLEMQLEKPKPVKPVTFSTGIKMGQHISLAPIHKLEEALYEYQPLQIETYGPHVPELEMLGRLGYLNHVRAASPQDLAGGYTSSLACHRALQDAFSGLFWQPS
How it was run: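 CDK7/CycH/MNAT1 (5 nM) was preincubated with compound for 60 min at room temperature, then reacted for 60 min with 100 nM ULight-MBP and 1 mM ATP in 1% DMSO. Irreversibility was probed with 20, 60 and 180 min preincubations.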

[2] = tested on: RNA polymerase II CTD phosphorylation (MDA-MB-231/NCI-H358 cells); assay: Inhibition of RNA polymerase II CTD phosphorylation in cell western assay; format: cell-based; settings: 4 hours incubation, phospho RNA Pol II Ser-5 or Ser-2
Protocol: 25000 cells (MDA-MB-231/NCI-H358) were seeded in 96 well black clear bottom plate incubated for overnight before addition of selected compound. 3 fold dilutions of selected compound diluted in DMSO starting from 10 μM, added to cells and incubated for 4 hours at 37° C., 5% CO2 incubator. Cells were washed once with 100 μl of phosphate buffered saline (sigma #P3813), then fixed with 100 μl/well of 4% Para formaldehyde for 60 min at room temperature, in dark. The cells were washed 3 times with 100 μl of wash buffer (PBS with 0.1% Triton-X-100), later blocked for 2 hours at room temperature in blocking buffer (5% BSA in PBST). Cells were stained overnight at 4° C. with Phospho RNA Pol II (S5) (Millipore #04-1572, Abcam #5131) or Phospho RNA Pol II (Ser-2), antibody (Bethyl labs #A300-654-A) in blocking buffer. Post incubation cells were washed with Delifia wash buffer (Perkin Elmer #4010-0010). Cells were treated with LANCE secondary antibodies (LANCE® Eu-W1024 perkin elmer #AD-0076 for phospho Ser-5 CTD RNA pol-II and Delfia Eu-N1 anti rabbit IgG Perkin elmer #AD0106 for phospho Ser-2 CTD RNA pol-II) for 2 hours in assay buffer (Perkin Elmer #1244-111), Cells were washed 3 times with Delfia wash buffer post incubation, Enhancement solution (Perkin Elmer #1244-105) added and incubated for 20 mins. Europium readings were taken in Victor-3 instrument. Cell normalization was done using Hoechst dye (0.5 μg/ml).
Selected compounds were screened in the above mentioned assay procedure. The EC50 values are summarised in the below table; wherein group “A” refers to an EC50 value of less than or equal to 1 μM, group “B” refers to EC50 value in range of 1 to 10 μM and group “C” refers to EC50 value of greater than 10 μM.

[3] = 10 μM compound, 60 min pre-incubation, 1 mM ATP
[4] = 60 min pre-incubation, 1 mM ATP, read-out: IC50

SMILES | inhibition at 10 µM [1, 3] | IC50 [1, 4] | further results
C=CC(=O)N1CCC(C(=O)Nc2cccc(CNc3nc(NC4CCOCC4)nc4c(C(C)C)cnn34)c2)C1 (single isomer, unassigned) [Compound 5, 1-acryloyl-N-(3-(((8-isopropyl-2-((tetrahydro-2H-pyran-4-yl)amino)pyrazolo[1,5-a][1,3,5]triazin-4-yl)amino)methyl)phenyl)pyrrolidine-3-carboxamide] | 94% | < 300 nM | EC50 [2]: 1000 to 10000 nM
C=CC(=O)N1CCC(C(=O)Nc2cccc(CNc3nc(NC4CCOCC4)nc4c(C(C)C)cnn34)c2)C1 (single isomer, unassigned) [Compound 6, 1-acryloyl-N-(3-(((8-isopropyl-2-((tetrahydro-2H-pyran-4-yl)amino)pyrazolo[1,5-a][1,3,5]triazin-4-yl)amino)methyl)phenyl)pyrrolidine-3-carboxamide] |  | < 300 nM | % inhibition @ 10 μM [1, 3]: 91%; EC50 [2]: 1000 to 10000 nM
C=CC(=O)N1CCC(C(=O)Nc2cccc(CNc3nc(OCCOC)nc4c(C(C)C)cnn34)c2)C1 (stereo not drawn) [Compound 103, 1-acryloyl-N-(3-(((8-isopropyl-2-(2-methoxyethoxy)pyrazolo[1,5-a][1,3,5]triazin-4-yl)amino)methyl)phenyl)pyrrolidine-3-carboxamide] | 80% | > 1000 nM | 
C=CC(=O)N1CCC(C(=O)Nc2cccc(CNc3nc(OCCOCCOC)nc4c(C(C)C)cnn34)c2)C1 (stereo not drawn) [Compound 104, 1-acryloyl-N-(3-(((8-isopropyl-2-(2-(2-methoxyethoxy)ethoxy)pyrazolo[1,5-a][1,3,5]triazin-4-yl)amino)methyl)phenyl)pyrrolidine-3-carboxamide] | 78% | > 1000 nM | 
C=CC(=O)N[C@H]1CC[C@@H](C(=O)Nc2cc(CNc3nc(OC4CCN(C)CC4)nc4c(C(C)C)cnn34)ccc2F)CC1 [Compound 118, (1,4-cis)-4-acrylamido-N-(2-fluoro-5-(((8-isopropyl-2-((1-methylpiperidin-4-yl)oxy)pyrazolo[1,5-a][1,3,5]triazin-4-yl)amino)methyl)phenyl)cyclohexane-1-carboxamide] | 93% | 300 to 1000 nM | 
C=CC(=O)N1CCN(C(=O)Oc2cccc(CNc3nc(OC4CCN(C)CC4)nc4c(C(C)C)cnn34)c2)CC1 [Compound 121, 3-(((8-isopropyl-2-((1-methylpiperidin-4-yl)oxy)pyrazolo[1,5-a][1,3,5]triazin-4-yl)amino)methyl)phenyl 4-acryloylpiperazine-1-carboxylate] |  |  | IC50 ([1]; IC50, 60 min pre-incubation, 1 mM ATP): < 300 nM; inhibition at 10 µM [1]: 93%
CC(C)c1cnn2c(NCc3ccc(F)c(NC(=O)C4CCCN(C(=O)/C=C/CN(C)C)C4)c3)nc(OC3CCN(C)CC3)nc12 (stereo not drawn) [Compound 123, (E)-1-(4-(dimethylamino)but-2-enoyl)-N-(2-fluoro-5-(((8-isopropyl-2-((1-methylpiperidin-4-yl)oxy)pyrazolo[1,5-a][1,3,5]triazin-4-yl)amino)methyl)phenyl)piperidine-3-carboxamide] | 96% | < 300 nM | 
CC(C)c1cnn2c(Nc3cccc(NC(=O)c4ccc(NC(=O)/C=C/CN(C)C)cc4)c3)nc(OC3CCN(C)CC3)nc12 [Compound 130, (E)-4-(4-(dimethylamino)but-2-enamido)-N-(3-((8-isopropyl-2-((1-methylpiperidin-4-yl)oxy)pyrazolo[1,5-a][1,3,5]triazin-4-yl)amino)phenyl)benzamide] |  | < 300 nM | inhibition at 10 µM [1]: 97%
CC(C)c1cnn2c(NCc3ccccc3N3CCN(C(=O)/C=C/CN(C)C)CC3)nc(NC3CCOCC3)nc12 [Compound 137, (E)-4-(dimethylamino)-1-(4-(2-(((8-isopropyl-2-((tetrahydro-2H-pyran-4-yl)amino)pyrazolo[1,5-a][1,3,5]triazin-4-yl)amino)methyl)phenyl)piperazin-1-yl)but-2-en-1-one] | 99% | < 300 nM | 
CC(C)c1cnn2c(NCC3CCN(C(=O)/C=C/CN4CCCC4)CC3)nc(NC3CCOCC3)nc12 [Compound 138, (E)-1-(4-(((8-isopropyl-2-((tetrahydro-2H-pyran-4-yl)amino)pyrazolo[1,5-a][1,3,5]triazin-4-yl)amino)methyl)piperidin-1-yl)-4-(pyrrolidin-1-yl)but-2-en-1-one] | 64% | > 1000 nM | 
C=CC(=O)N1CCC1C(=O)Nc1cccc(CNc2cc(NC3CCOCC3)nc3c(C(C)C)cnn23)c1 (stereo not drawn) [Compound 139, 1-acryloyl-N-(3-(((3-isopropyl-5-((tetrahydro-2H-pyran-4-yl)amino)pyrazolo[1,5-a]pyrimidin-7-yl)amino)methyl)phenyl)azetidine-2-carboxamide] | 98% | < 300 nM | 

Second part, led by results:

inhibition at 10 µM [1, 3] | IC50 [1, 4] | SMILES | further results
99% | < 300 nM | C=CC(=O)N1CCOC(C(=O)Nc2cccc(CNc3nc(OC4CCN(C)CC4)nc4c(C(C)C)cnn34)c2)C1 (stereo not drawn) [Compound 112, 4-acryloyl-N-(3-(((8-isopropyl-2-((1-methylpiperidin-4-yl)oxy)pyrazolo[1,5-a][1,3,5]triazin-4-yl)amino)methyl)phenyl)morpholine-2-carboxamide] | 
 | < 300 nM | C=CC(=O)N1CCOCC1C(=O)Nc1cccc(CNc2nc(OC3CCN(C)CC3)nc3c(C(C)C)cnn23)c1 (stereo not drawn) [Compound 113, 4-acryloyl-N-(3-(((8-isopropyl-2-((1-methylpiperidin-4-yl)oxy)pyrazolo[1,5-a][1,3,5]triazin-4-yl)amino)methyl)phenyl)morpholine-3-carboxamide] | 
93% | < 300 nM | C=CC(=O)N1CCCC(C(=O)Nc2ccc(CNc3nc(OC4CCN(C)CC4)nc4c(C(C)C)cnn34)c[n+]2[O-])C1 (stereo not drawn) [Compound 120, 2-(1-acryloylpiperidine-3-carboxamido)-5-(((8-isopropyl-2-((1-methylpiperidin-4-yl)oxy)pyrazolo[1,5-a][1,3,5]triazin-4-yl)amino)methyl)pyridine 1-oxide] | 
80% |  | C=CC(=O)NC1CCC(C(=O)Nc2cccc(Nc3nc(OC4CCN(C)CC4)nc4c(C(C)C)cnn34)c2)CC1 (stereo not drawn) [Compound 126, (1,4-cis)-4-acrylamido-N-(3-((8-isopropyl-2-((1-methylpiperidin-4-yl)oxy)pyrazolo[1,5-a][1,3,5]triazin-4-yl)amino)phenyl)cyclohexane-1-carboxamide] | 
 | > 1000 nM | C=CC(=O)N[C@H]1CC[C@@H](C(=O)Nc2cccc(Nc3nc(OC4CCN(C)CC4)nc4c(C(C)C)cnn34)c2)CC1 [Compound 126, (1,4-cis)-4-acrylamido-N-(3-((8-isopropyl-2-((1-methylpiperidin-4-yl)oxy)pyrazolo[1,5-a][1,3,5]triazin-4-yl)amino)phenyl)cyclohexane-1-carboxamide] | 
95% | < 300 nM | C=CC(=O)N1CCC(C(=O)Nc2cccc(Nc3nc(OC4CCN(C)CC4)nc4c(C(C)C)cnn34)c2)CC1 [Compound 127, 1-acryloyl-N-(3-((8-isopropyl-2-((1-methylpiperidin-4-yl)oxy)pyrazolo[1,5-a][1,3,5]triazin-4-yl)amino)phenyl)piperidine-4-carboxamide] | 
97% | < 300 nM | CC(C)c1cnn2c(Nc3cccc(C(=O)NC4CCCN(C(=O)/C=C/CN(C)C)C4)c3)nc(OC3CCN(C)CC3)nc12 (stereo not drawn) [Compound 133, (E)-N-(1-(4-(dimethylamino)but-2-enoyl)piperidin-3-yl)-3-((8-isopropyl-2-((1-methylpiperidin-4-yl)oxy)pyrazolo[1,5-a][1,3,5]triazin-4-yl)amino)benzamide] | 
97% | < 300 nM | CC(C)c1cnn2c(NCc3cccc(NC(=O)[C@H]4CC[C@@H](NC/C=C/C(=O)N(C)C)CC4)c3)nc(OC3CCN(C)CC3)nc12 [Compound 135, (1s,4s)-4-(((E)-4-(dimethylamino)-4-oxobut-2-en-1-yl)amino)-N-(3-(((8-isopropyl-2-((1-methylpiperidin-4-yl)oxy)pyrazolo[1,5-a][1,3,5]triazin-4-yl)amino)methyl)phenyl)cyclohexane-1-carboxamide] | 
73% | > 1000 nM | C=CC(=O)N1CCC(C(=O)Nc2cccc(CNc3nc(OC)nc4c(C(C)C)cnn34)c2)CC1 [Compound 136, 1-acryloyl-N-(3-(((8-isopropyl-2-methoxypyrazolo[1,5-a][1,3,5]triazin-4-yl)amino)methyl)phenyl)piperidine-4-carboxamide] | 
